Data: US4839374A, “4-((Bicyclic heterocyclyl)-methyl and -hetero)-piperidines” (Janssen Pharmaceutica, N.V., priority 1987, dated 1989)

Each compound was assayed on compound 48/80-induced lethality (assay: Protection of rats from compound 48/80-induced lethality). Details: Rattus norvegicus, 4 h, read-out: Compound 48/80 lethality test in rats ED50, s.c. or p.o. 1 h before compound 48/80 0.5 mg/kg i.v.; protection of 50% of animals, survival after 4 hours.
Type: in vivo, rats of an inbred Wistar strain
Method in brief: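 Male inbred Wistar rats (240-260 g), starved overnight, dosed subcutaneously or orally with compound or 0.9% NaCl before compound 48/80 challenge. Survival at 4 hours counted as protection. ED50 in mg/kg is the dose protecting 50% of animals from lethality.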
`Fc1ccc(Cn2c(CC3CCNCC3)nc3ccncc32)cc1` [Compound 50, 3-[(4-fluorophenyl)methyl]-2-(4-piperidinylmethyl)-3H-imidazo[4,5-c]-pyridine] was tested, and the ED50 was 0.04 mg/kg.
Compound `Fc1ccc(Cn2c(CC3CCN(CCOCc4ccccn4)CC3)nc3cccnc32)cc1` [Compound 394, 3-[(4-fluorophenyl)methyl]-2-[[1-[2-(2-pyridinylmethoxy)ethyl]-4-piperidinyl]-methyl]-3H-imidazol[4,5-b]pyridine] has an ED50 of 0.02 mg/kg.
`COc1ccc(CCN2CC[C@@H](Oc3nc4ccccc4n3Cc3ccc(F)cc3)[C@H](C)C2)cc1` (relative stereo) [Compound 268] was tested, and the ED50 was 0.16 mg/kg.
`Cc1ccc(Cn2c(CC3CCN(CCNc4nccs4)CC3)nc3ccccc32)cc1` [Compound 364] was tested, and the ED50 was 0.04 mg/kg.
`CC(=O)N(C)c1ccccc1C(=O)NCCN1CCC(Cc2nc3ccccc3n2Cc2ccco2)CC1` [Compound 511] was tested, and the ED50 was 0.16 mg/kg.
`NC(=O)CN1CCC(Cc2nc3ccccc3n2Cc2ccc(F)cc2)CC1` [Compound 149, 4-[[1-[(4-fluorophenyl)methyl]-1H-benzimidazol-2-yl]methyl]-1-piperidineacetamide] was tested, and the ED50 was 0.04 mg/kg.
`CN1CCC(Cc2nc3ccccc3n2Cc2ccco2)CC1` [Compound 86] gave an ED50 of 0.01 mg/kg.
With `Fc1ccc(Cn2c(CC3CCN(Cc4ccccc4)CC3)nc3cccnc32)cc1` [Compound 8, 3-[(4-fluorophenyl)methyl]-2-[[1-(phenylmethyl)-4-piperidinyl]-methyl]-3H-imidazo[4,5-b]pyridine] the ED50 was 0.04 mg/kg.
With `Fc1ccc(Cn2c(CC3CCN(CCNc4nc5ccccc5[nH]4)CC3)nc3ccccc32)cc1` [Compound 328, N-[2-[4-[[1-[(4-fluorophenyl)methyl]-1H-benzimidazol-2-yl]methyl]-1-piperidinyl]ethyl]1H-benzimidazol-2-amine] the ED50 was 0.16 mg/kg.
In the case of `Fc1ccc(Cn2c(CC3CCN(CCSc4ccccc4)CC3)nc3cccnc32)cc1` [Compound 147, 3-[(4-fluorophenyl)methyl]-2-[[1-[2-(phenylthio)ethyl]-4-piperidinyl]methyl]-3H-imidazo[4,5-b]pyridine], the ED50 is reported as 0.08 mg/kg.
With `CC1(C)Nc2ccccc2C(=O)N1CCN1CCC(Cc2nc3cccnc3n2Cc2ccccn2)CC1` [Compound 479, 2,3-dihydro-2,2-dimethyl-3-[2-[4-[[3-(2-pyridinylmethyl)-3H-imidazo[4,5-b]-pyridin-2-yl]methyl]-1-piperidinyl]ethyl]-4(1H)-quinazolinone] the ED50 was 0.04 mg/kg.
For `CSc1nc2cncnc2n1CCN1CCC(Cc2nc3ccccc3n2Cc2ccc(F)cc2)CC1` [Compound 507, 9-[2-[4-[[1-[(4-fluorophenyl)methyl]-1H-benzimidazol-2-yl]methyl]-1-piperidinyl]ethyl]-8-(methylthio)-9H-purine], the ED50 was 0.16 mg/kg.
Compound `C=CCN1CCC(Cc2nc3ccccc3n2Cc2ccc(F)cc2)CC1` [Compound 144, 1-[(4-fluorophenyl)methyl]-2-[[1-(2-propenyl)-4-piperidinyl]methyl]-1H-benzimidazole] has an ED50 of 0.04 mg/kg.
With `Cc1ccc(Cn2c(CC3CCNCC3)nc3ccccc32)cc1` [Compound 42, 1-[(4-methylphenyl)methyl]-2-(4-piperidinylmethyl)-1H-benzimidazole] the ED50 was 0.02 mg/kg.
With `c1coc(Cn2c(CC3CCN(CCNc4nc5cnccc5[nH]4)CC3)nc3cccnc32)c1` [Compound 417, N-[2-[4-[[3-(2-furanylmethyl)-3H-imidazo[4,5-b]pyridin-2-yl]methyl]-1-piperidinyl]ethyl]-1H-imidazo[4,5-c]pyridin-2-amine] the ED50 was 0.04 mg/kg.
Work on `CCn1nnn(CCN2CCC(Cc3nc4ccccc4n3Cc3ccc(F)cc3)CC2)c1=O` [Compound 123] yielded an ED50 of 0.01 mg/kg.
`Cc1nc2n(c(=O)c1CCN1CCC(Cc3nc4cccnc4n3Cc3ccco3)CC1)CCCS2` [Compound 178] gave an ED50 of 0.02 mg/kg.
Work on `Cn1cnc2c(NCCN3CCC(Cc4nc5ccccc5n4Cc4ccc(F)cc4)CC3)ncnc21` [Compound 369] yielded an ED50 of 0.04 mg/kg.
`O=c1oc2ccccc2cc1CCN1CCC(Cc2nc3ccccc3n2Cc2cccs2)CC1` [Compound 259] showed an ED50 of 0.08 mg/kg.
